Reference: patent US8841257B2, “Inhibitors of STAT3 and uses thereof” (Board of Regents, The University of Texas System, priority 2009, dated 2014)

Tests used:
STAT3 = STAT3 (Homo sapiens, UniProt P40763); assay: Inhibition of STAT3 phosphorylation in BT20 breast tumor cells (western blot); assay type: cell-based; set-up: endogenous in cells; host or cells: BT20 breast tumor cells
Procedure: Inhibition of STAT3 in BT20 Breast Tumor Cells. General procedure: 35 mm petri dishes were plated with 300,000 BT20 cells in 2 mL RPMI1640 media containing 10% FBS, […], streptomycin, and glutamine. Prodrugs were dissolved in DMSO and were added to the cells with fresh media at varying concentrations. After 2 h the cells were washed with ice cold phosphate buffered saline. Washed cells were treated with lysis buffer (50 mM Hepes, pH 7.4, 150 mM NaCl, 1.5 mM MgCl2, 1 mM EGTA, 100 mM NaF, 10 mM sodium pyrophosphate, 10% glycerol, 1% Triton X-100, 1 mM PMSF, 1 mM Na3VO4, 10 μg/mL leupeptin and 10 μg/mL aprotinin). Cell-free detergent extracts were centrifuged at 15,000 rpm in a microcentriguge for 30 min at 4° C. and the protein concentrations of the supernatants determined. Aliquots containing 12 μg of protein were separated on 8% SDS-PAGE and were transferred to PVDF filters. The filters were blocked with 5% bovine serum albumin and were probed with pStat3^Y705 antibody followed by secondary antibody, whose signal was detected with an enhanced chemiluminescence kit (ECL, Amersham, Chicago, Ill.). Filters were stripped with stripping buffer (62.5 mM Tris, pH 6.8, 2% SDS, and 0.1 M 2-mercaptoethanol) at 50° C. for 30 min. Filters were then probed with total Stat3 antibody and visualized with chemiluminescence as above.
Because DMSO is toxic, other formulations were evaluated for potential use in animal models. The compound of Example 1 was dissolved in EtOH, 20% (w/v) Trappsol (hydroxypropyl β-cyclodextran, pharmaceutical grade), or a liposomal formulation to a concentration of 5 mM. These formulations were given to cells at 0.1, 0.5, and 5 μM concentrations. At two hours, cells were lysed and pSTAT3 levels were determined by Western Blot (FIG. 3). Different formulations have little effect on inhibition of STAT3. The compound of Example 1 was dissolved in DMSO, EtOH, Trappsol, or as a 10 mol % mixture in dimyristoylphosphatidyl choline and applied to BT20 cell in culture. After two hours, cells were lysed and pSTAT3 levels determined by Western blot. To prepare liposomes a solution of 1.0 mg of the compound of Example 1, 7.2 mg of DMPC, 0.41 mg of Tween 20 in 1.0 mL of tert-butanol was lyophilized. A control lipid formulation of 7.2 mg of DMPC and 0.41 mg of Tween 20 in 1.0 mL of tert-butanol was lyophilized. These samples were mixed with 236 μL of H2O and were vortexed and sonicated for 5 min.
The compounds are selective for STAT3 over STAT1 in BT20 breast tumor cells. BT20 cells prepared as above and were treated with 5 μM of the compound of Example 1 for two hours then were treated with 25 ng/mL of interferon γ (IFNγ). […] (FIG. 4, bottom panel).
Time course of inhibition of STAT3 phosphorylation in BT20 cells. BT20 cells were plated as above and treated with the compounds from Examples 1 and 6 and western blots were performed at varying time intervals.

HUVEC cells = assay: Inhibition of tube formation in HUVEC cells; assay type: cell-based; details: overnight; 0.01-5.0 μM tested
Procedure: Inhibition of tube formation in HUVEC cells. […] Briefly, 1×10^4 HUV endothelial cells were seeded on the surface of the polymerized EC matrix gel per well, treated with either DMSO or 0.01 μM, 0.1 μM, 0.2 μM, 0.5 μM, 1.0 μM, 2.0 μM, and 5.0 μM of the compound from Example 1 and the compound from Example 16. The cells were incubated overnight at 37° C. The next day the tubes were observed and the images were captured using a Nikon phase contrast inverted microscope.

STAT3, sequence (P40763 whole entry): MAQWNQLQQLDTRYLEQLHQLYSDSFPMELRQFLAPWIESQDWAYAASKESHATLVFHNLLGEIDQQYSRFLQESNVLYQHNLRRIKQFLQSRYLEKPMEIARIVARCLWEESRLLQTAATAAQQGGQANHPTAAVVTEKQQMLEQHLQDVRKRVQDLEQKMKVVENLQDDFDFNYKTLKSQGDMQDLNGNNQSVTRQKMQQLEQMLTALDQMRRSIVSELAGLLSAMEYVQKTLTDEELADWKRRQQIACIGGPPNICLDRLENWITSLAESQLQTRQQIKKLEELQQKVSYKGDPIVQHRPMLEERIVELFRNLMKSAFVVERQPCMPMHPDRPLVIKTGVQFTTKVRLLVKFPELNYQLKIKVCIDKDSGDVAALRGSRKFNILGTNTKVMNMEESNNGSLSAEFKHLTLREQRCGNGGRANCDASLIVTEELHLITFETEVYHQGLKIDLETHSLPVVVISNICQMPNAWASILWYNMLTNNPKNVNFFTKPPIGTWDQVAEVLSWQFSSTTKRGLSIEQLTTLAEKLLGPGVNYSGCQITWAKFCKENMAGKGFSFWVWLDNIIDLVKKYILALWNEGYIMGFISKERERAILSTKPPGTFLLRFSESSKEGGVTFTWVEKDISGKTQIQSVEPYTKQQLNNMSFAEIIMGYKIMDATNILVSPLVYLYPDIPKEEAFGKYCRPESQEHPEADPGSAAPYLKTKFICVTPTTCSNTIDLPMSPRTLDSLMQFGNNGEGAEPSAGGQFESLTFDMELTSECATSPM

Row | SMILES | increase in pSTAT3 formation on EGF stimulation (STAT3; 5 μM, 2 h, then EGF 50 ng/mL, BT20) | phosphorylation of STAT3 at the indicated time points (STAT3; 5 μM, BT-20 cells) | selectivity for STAT3 over STAT1 and AKT (STAT3; BT20 cells) | pSTAT3 inhibition compared with DMSO sample (STAT3; dissolved in EtOH, 0.1 μM, 2 h, BT20) | pSTAT3 inhibition compared with DMSO sample (STAT3; dissolved in EtOH, 0.5 and 5 μM, 2 h, BT20) | pSTAT3 inhibition compared with DMSO sample (STAT3; in 20% Trappsol HPB, 0.1 μM, 2 h, BT20) | pSTAT3 inhibition compared with DMSO sample (STAT3; in 20% Trappsol HPB, 0.5 and 5 μM, 2 h, BT20) | pSTAT3 inhibition compared with DMSO sample (STAT3; liposomal preparation (DMPC/Tween 20), 2 h, BT20) | concentration at which significant reduction in tube formation was observed (HUVEC cells) [µM]
1 | C/C(=C\C(=O)N[C@H]1CCc2cccc3c2N(C1=O)[C@H](C(=O)N[C@H](C)CCC(N)=O)C3)c1ccc(C(F)(F)P(=O)(OCOC(=O)C(C)(C)C)OCOC(=O)C(C)(C)C)cc1 [Example 1, (2E)-3-[4-[[bis[(2,2-dimethyl-1-oxopropoxy)methoxy]phosphinyl]difluoromethyl]phenyl]-but-2-enoyl-Haic-(R)-4-aminopentamide] | inhibited the increase in pSTAT3 formation | inhibit the phosphorylation of STAT3 | selective for STAT3 over STAT1 and AKT | did not inhibit as much as did the DMSO sample | comparable | did not inhibit as much as did the DMSO sample | comparable | inhibition comparable to DMSO | 
2 | CCCC[C@H](NC(=O)/C=C(\C)c1ccc(C(F)(F)P(=O)(OCOC(=O)C(C)(C)C)OCOC(=O)C(C)(C)C)cc1)C(=O)N1C[C@H]2CC2[C@H]1C(=O)N[C@@H](CCC(N)=O)[C@@H](C)OCc1ccccc1 (stereo partly drawn) [Example 16, (2E)-3-[4-[[bis[(2,2-dimethyl-1-oxopropoxy)methoxy]phosphinyl]difluoromethyl]phenyl]-but-2-enoyl-norleucinyl-(2S,3R,4S)-methanoprolinyl-(4S,5R)-4-amino-5-benzyloxyhexamide] |  |  |  |  |  |  |  |  | 2
